# According to publication PMC9506414, “Novel 2,6,9-Trisubstituted Purines as Potent CDK Inhibitors Alleviating Trastuzumab-Resistance of HER2-Positive Breast Cancers” (Pharmaceuticals, 2022):
# What was measured:
# Experiment in all cases: Kinome-wide inhibition profiling
# Assay type in all cases: biochemical
# [1] = molecular target: T1, FGFR1 (Homo sapiens, UniProt P11362)
# T1 construct: purchased Reaction Biology Corp
# Method: (§1) In vitro CDK12/cyclinK assays for all compounds and in vitro kinome-wide inhibition profiling of 30d at 10 μM were performed by a CRO company (Reaction Biology Corp., San Diego, CA, USA).
# [2] = molecular target: T2, AurkC (Homo sapiens, UniProt Q9UQB9)
# T2 construct: purchased Reaction Biology Corp
# Method: as §1
# [3] = molecular target: T3, LOK (Homo sapiens, UniProt O94804)
# T3 construct: purchased Reaction Biology Corp
# Method: as §1
# [4] = molecular target: T4, SGK3 (Homo sapiens, UniProt Q96BR1)
# T4 construct: purchased Reaction Biology Corp
# Method: as §1
# [5] = molecular target: T5, BRSK1 (Homo sapiens, UniProt Q8TDC3)
# T5 construct: purchased Reaction Biology Corp
# Method: as §1
# [6] = molecular target: T6, AKT2 (Homo sapiens, UniProt P31751)
# T6 construct: purchased Reaction Biology Corp
# Method: as §1
# [7] = molecular target: T7, MKK6 (Homo sapiens, UniProt P52564)
# T7 construct: purchased Reaction Biology Corp
# Method: as §1
# [8] = molecular target: T8, TAK1 (Homo sapiens, UniProt O43318)
# T8 construct: purchased Reaction Biology Corp
# Method: as §1
# [9] = molecular target: T9, DAPK1 (Homo sapiens, UniProt P53355)
# T9 construct: purchased Reaction Biology Corp
# Method: as §1
# [10] = molecular target: T10, CSNK1E (Homo sapiens, UniProt P49674)
# T10 construct: purchased Reaction Biology Corp
# Method: as §1
# [11] = molecular target: T11, STK39 (Homo sapiens, UniProt Q9UEW8)
# T11 construct: purchased Reaction Biology Corp
# Method: as §1
# [12] = molecular target: T12, HIPK2 (Homo sapiens, UniProt Q9H2X6)
# T12 construct: purchased Reaction Biology Corp
# Method: as §1
# [13] = molecular target: T13, PBK/TOPK (Homo sapiens, UniProt Q96KB5)
# T13 construct: purchased Reaction Biology Corp
# Method: as §1
# [14] = molecular target: T14, IKK-beta (Homo sapiens, UniProt O14920)
# T14 construct: purchased Reaction Biology Corp
# Method: as §1
# [15] = molecular target: T15, MYLK4 (Homo sapiens, UniProt Q86YV6)
# T15 construct: purchased Reaction Biology Corp
# Method: as §1
# [16] = molecular target: T16, DCAMKL1 (Homo sapiens, UniProt O15075)
# T16 construct: purchased Reaction Biology Corp
# Method: as §1
# [17] = molecular target: T17, HIPK3 (Homo sapiens, UniProt Q9H422)
# T17 construct: purchased Reaction Biology Corp
# Method: as §1
# [18] = molecular target: T18, TESK1 (Homo sapiens, UniProt Q15569)
# T18 construct: purchased Reaction Biology Corp
# Method: as §1
# [19] = molecular target: T19, MARK4 (Homo sapiens, UniProt Q96L34)
# T19 construct: purchased Reaction Biology Corp
# Method: as §1
# [20] = molecular target: T20, MST1 (Homo sapiens, UniProt Q13043)
# T20 construct: purchased Reaction Biology Corp
# Method: as §1
# [21] = molecular target: T21, CLK3 (Homo sapiens, UniProt P49761)
# T21 construct: purchased Reaction Biology Corp
# Method: as §1
# [22] = molecular target: T22, DYRK1A (Homo sapiens, UniProt Q13627)
# T22 construct: purchased Reaction Biology Corp
# Method: as §1
# [23] = molecular target: T23, MAP3K2 (Homo sapiens, UniProt Q9Y2U5)
# T23 construct: purchased Reaction Biology Corp
# Method: as §1
# [24] = molecular target: T24, GSK3a (Homo sapiens, UniProt P49840)
# T24 construct: purchased Reaction Biology Corp
# Method: as §1
# [25] = molecular target: T25, CAMK1a (Homo sapiens, UniProt Q14012)
# T25 construct: purchased Reaction Biology Corp
# Method: as §1
# [26] = molecular target: T26, SIK2 (Homo sapiens, UniProt Q9H0K1)
# T26 construct: purchased Reaction Biology Corp
# Method: as §1
# [27] = molecular target: T27, NEK4 (Homo sapiens, UniProt P51957)
# T27 construct: purchased Reaction Biology Corp
# Method: as §1
# [28] = molecular target: T28, PKAC-gamma (Homo sapiens, UniProt P22612)
# T28 construct: purchased Reaction Biology Corp
# Method: as §1
# [29] = molecular target: T29, LATS1 (Homo sapiens, UniProt O95835)
# T29 construct: purchased Reaction Biology Corp
# Method: as §1
# [30] = molecular target: T30, PHKg1 (Homo sapiens, UniProt Q16816)
# T30 construct: purchased Reaction Biology Corp
# Method: as §1
# [31] = molecular target: T31, BMX (Homo sapiens, UniProt P51813)
# T31 construct: purchased Reaction Biology Corp
# Method: as §1
# [32] = molecular target: T32, FLT1 (Homo sapiens, UniProt P17948)
# T32 construct: purchased Reaction Biology Corp
# Method: as §1
# [33] = molecular target: T33, MLK1 (Homo sapiens, UniProt P80192)
# T33 construct: purchased Reaction Biology Corp
# Method: as §1
# [34] = molecular target: T34, NEK11 (Homo sapiens, UniProt Q8NG66)
# T34 construct: purchased Reaction Biology Corp
# Method: as §1
# [35] = molecular target: T35, CHEK1 (Homo sapiens, UniProt O14757)
# T35 construct: purchased Reaction Biology Corp
# Method: as §1
# [36] = molecular target: T36, PKN3 (Homo sapiens, UniProt Q6P5Z2)
# T36 construct: purchased Reaction Biology Corp
# Method: as §1
# [37] = molecular target: T37, IRAK2 (Homo sapiens, UniProt O43187)
# T37 construct: purchased Reaction Biology Corp
# Method: as §1
# [38] = molecular target: T38, CSNK2A1 (Homo sapiens, UniProt P68400)
# T38 construct: purchased Reaction Biology Corp
# Method: as §1
# [39] = molecular target: T39, TXK (Homo sapiens, UniProt P42681)
# T39 construct: purchased Reaction Biology Corp
# Method: as §1
# [40] = molecular target: T40, MARK2 (Homo sapiens, UniProt Q7KZI7)
# T40 construct: purchased Reaction Biology Corp
# Method: as §1
# [41] = molecular target: T41, FER (Homo sapiens, UniProt P16591)
# T41 construct: purchased Reaction Biology Corp
# Method: as §1
# [42] = molecular target: T42, S6K1 (Homo sapiens, UniProt P23443)
# T42 construct: purchased Reaction Biology Corp
# Method: as §1
# [43] = molecular target: T43, PKCzeta (Homo sapiens, UniProt Q05513)
# T43 construct: purchased Reaction Biology Corp
# Method: as §1
# [44] = molecular target: T44, GRK2 (Homo sapiens, UniProt P25098)
# T44 construct: purchased Reaction Biology Corp
# Method: as §1
# T15 sequence (Q86YV6 whole entry): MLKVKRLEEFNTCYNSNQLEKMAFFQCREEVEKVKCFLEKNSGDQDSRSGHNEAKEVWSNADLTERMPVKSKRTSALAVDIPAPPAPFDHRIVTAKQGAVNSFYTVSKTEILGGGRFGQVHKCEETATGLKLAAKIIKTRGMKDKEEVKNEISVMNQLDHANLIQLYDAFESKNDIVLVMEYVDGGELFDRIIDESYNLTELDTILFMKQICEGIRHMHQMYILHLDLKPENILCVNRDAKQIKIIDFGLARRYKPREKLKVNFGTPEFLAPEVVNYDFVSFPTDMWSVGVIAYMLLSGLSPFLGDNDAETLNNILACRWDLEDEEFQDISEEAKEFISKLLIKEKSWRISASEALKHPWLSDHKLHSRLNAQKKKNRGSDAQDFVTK
# T24 sequence (P49840 whole entry): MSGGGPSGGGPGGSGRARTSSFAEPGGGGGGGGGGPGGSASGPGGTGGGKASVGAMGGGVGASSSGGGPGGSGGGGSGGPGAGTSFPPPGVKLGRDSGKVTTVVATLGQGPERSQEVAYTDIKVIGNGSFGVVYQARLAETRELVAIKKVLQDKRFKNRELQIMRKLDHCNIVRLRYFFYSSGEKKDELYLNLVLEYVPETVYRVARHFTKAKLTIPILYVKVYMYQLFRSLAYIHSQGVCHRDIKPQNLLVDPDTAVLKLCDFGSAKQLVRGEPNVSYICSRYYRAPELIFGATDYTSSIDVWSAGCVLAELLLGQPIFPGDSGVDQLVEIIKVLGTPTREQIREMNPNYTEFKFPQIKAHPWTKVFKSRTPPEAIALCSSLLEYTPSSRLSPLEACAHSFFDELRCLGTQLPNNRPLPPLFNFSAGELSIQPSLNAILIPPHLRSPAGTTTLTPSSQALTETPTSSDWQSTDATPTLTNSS
# T20 sequence (Q13043 whole entry): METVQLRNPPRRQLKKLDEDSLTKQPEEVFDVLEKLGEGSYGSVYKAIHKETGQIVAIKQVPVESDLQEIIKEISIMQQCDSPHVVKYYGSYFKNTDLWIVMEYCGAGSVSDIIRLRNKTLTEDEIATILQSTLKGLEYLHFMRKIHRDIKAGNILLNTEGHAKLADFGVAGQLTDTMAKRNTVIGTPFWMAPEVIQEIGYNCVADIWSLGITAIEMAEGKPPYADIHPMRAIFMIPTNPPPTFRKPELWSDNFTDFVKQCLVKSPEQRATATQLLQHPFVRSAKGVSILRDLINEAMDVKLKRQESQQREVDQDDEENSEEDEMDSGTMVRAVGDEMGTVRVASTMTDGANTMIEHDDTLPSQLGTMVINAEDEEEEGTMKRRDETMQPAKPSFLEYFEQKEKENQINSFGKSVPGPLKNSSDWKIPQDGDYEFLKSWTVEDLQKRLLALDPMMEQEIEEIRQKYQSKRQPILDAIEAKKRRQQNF
# T38 sequence (P68400 whole entry): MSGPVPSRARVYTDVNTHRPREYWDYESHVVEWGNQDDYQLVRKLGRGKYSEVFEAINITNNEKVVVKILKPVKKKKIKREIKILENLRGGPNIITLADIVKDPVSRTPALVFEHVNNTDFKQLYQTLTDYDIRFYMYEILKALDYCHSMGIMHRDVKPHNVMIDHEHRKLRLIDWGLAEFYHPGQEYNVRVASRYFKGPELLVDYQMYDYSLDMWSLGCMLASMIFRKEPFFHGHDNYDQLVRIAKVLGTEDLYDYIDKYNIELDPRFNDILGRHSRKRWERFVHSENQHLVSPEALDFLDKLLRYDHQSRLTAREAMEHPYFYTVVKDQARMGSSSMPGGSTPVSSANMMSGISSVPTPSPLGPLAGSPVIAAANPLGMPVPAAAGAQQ
# T36 sequence (Q6P5Z2 whole entry): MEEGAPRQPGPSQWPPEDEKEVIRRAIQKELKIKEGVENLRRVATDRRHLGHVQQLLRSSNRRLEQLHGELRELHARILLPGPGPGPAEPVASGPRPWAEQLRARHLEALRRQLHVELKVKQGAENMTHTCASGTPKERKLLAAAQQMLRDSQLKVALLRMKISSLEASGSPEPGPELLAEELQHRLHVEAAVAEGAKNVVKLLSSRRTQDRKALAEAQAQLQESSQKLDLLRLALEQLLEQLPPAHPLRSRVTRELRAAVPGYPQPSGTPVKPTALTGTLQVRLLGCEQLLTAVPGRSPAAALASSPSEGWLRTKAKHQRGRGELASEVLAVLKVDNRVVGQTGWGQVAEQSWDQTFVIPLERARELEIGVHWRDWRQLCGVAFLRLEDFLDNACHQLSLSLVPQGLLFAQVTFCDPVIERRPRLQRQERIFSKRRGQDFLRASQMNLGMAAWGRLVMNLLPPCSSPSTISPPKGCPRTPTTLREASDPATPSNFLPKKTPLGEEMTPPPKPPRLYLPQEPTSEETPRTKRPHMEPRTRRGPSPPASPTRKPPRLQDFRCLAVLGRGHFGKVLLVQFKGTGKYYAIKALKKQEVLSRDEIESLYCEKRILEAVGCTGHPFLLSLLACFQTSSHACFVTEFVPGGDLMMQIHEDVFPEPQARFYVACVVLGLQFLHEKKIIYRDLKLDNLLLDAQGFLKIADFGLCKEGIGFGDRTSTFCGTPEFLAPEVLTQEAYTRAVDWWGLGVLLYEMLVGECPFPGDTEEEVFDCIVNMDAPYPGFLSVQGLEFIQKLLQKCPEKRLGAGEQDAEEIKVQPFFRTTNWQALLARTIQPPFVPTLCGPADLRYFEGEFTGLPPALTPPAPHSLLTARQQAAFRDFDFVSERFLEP
# T10 sequence (P49674 whole entry): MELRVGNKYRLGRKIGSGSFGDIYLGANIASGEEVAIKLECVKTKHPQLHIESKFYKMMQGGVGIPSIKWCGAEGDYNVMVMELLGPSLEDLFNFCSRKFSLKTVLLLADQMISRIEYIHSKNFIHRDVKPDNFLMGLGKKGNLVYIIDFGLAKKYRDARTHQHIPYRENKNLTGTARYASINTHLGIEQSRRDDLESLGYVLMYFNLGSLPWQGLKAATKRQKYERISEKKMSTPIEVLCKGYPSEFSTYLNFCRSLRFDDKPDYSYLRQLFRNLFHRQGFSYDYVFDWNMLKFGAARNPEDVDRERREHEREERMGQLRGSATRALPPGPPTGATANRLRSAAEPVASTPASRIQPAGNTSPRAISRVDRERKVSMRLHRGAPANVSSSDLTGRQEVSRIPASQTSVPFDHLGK
# T37 sequence (O43187 whole entry): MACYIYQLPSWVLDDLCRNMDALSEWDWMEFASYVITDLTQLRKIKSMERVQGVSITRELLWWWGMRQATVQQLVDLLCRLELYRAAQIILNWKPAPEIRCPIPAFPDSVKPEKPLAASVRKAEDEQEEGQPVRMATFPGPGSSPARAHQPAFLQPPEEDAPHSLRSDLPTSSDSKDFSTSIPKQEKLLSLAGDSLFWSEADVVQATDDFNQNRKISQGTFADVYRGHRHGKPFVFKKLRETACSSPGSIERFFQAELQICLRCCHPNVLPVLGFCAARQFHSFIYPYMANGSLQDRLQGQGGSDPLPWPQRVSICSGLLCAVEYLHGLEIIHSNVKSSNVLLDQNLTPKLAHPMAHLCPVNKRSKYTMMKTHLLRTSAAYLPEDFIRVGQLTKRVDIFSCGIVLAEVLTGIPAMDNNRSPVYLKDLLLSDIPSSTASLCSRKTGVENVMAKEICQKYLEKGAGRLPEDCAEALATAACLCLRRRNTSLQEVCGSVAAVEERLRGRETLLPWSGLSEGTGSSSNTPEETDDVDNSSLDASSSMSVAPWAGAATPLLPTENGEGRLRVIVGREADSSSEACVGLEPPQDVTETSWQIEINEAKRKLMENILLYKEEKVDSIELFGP
# T18 sequence (Q15569 whole entry): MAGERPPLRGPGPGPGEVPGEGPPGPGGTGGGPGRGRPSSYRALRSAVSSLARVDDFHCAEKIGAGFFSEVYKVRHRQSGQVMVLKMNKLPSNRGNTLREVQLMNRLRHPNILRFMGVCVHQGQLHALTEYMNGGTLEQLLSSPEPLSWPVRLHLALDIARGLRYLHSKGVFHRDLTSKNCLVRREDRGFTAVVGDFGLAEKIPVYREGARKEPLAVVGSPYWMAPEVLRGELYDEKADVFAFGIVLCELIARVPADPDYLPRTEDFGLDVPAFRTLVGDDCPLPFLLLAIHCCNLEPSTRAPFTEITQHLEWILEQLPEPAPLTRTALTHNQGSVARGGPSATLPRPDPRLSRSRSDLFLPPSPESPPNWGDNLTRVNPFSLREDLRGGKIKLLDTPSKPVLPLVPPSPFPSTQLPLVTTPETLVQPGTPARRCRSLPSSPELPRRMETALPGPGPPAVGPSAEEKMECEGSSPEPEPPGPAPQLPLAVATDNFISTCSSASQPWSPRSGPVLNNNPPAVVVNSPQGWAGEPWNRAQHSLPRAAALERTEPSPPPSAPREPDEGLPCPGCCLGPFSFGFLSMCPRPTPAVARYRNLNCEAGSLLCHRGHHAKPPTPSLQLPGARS
# T4 sequence (Q96BR1 whole entry): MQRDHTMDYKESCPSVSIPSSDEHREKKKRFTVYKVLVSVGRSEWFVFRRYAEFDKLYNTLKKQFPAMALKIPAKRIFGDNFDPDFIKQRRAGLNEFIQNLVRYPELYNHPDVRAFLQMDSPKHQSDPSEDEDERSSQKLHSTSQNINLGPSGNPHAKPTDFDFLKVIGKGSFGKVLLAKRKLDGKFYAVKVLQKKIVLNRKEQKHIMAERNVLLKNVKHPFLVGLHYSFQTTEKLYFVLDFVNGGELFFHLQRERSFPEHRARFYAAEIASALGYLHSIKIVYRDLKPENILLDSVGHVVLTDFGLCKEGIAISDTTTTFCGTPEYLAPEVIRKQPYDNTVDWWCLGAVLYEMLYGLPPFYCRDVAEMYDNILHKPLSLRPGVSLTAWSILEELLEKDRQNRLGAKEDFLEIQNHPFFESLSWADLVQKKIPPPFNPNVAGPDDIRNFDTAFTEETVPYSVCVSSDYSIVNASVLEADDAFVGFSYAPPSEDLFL
smiles,measurement,setting,value
"CCn1cnc2c(NCc3ccc(-c4ccccn4)nc3)nc(-c3ccc(N)nc3)nc21 [Compound 30d, N-([2,2′-Bipyridin]-5-ylmethyl)-2-(6-aminopyridin-3-yl)-9-ethyl-9H-purin-6-amine]",remaining activity at 10 µM,[1],28.8%
same,remaining activity at 10 µM,[2],25.5%
same,remaining activity at 10 µM,[3],41.4%
same,remaining activity at 10 µM,[4],92.6%
same,remaining activity at 10 µM,[5],92.8%
same,remaining activity at 10 µM,[6],100%
same,remaining activity at 10 µM,[7],95.4%
same,remaining activity at 10 µM,[8],98.2%
same,remaining activity at 10 µM,[9],99.7%
same,remaining activity at 10 µM,[10],22.9%
same,remaining activity at 10 µM,[11],29.6%
same,remaining activity at 10 µM,[12],81.3%
same,remaining activity at 10 µM,[13],93.5%
same,remaining activity at 10 µM,[14],83.7%
same,inhibition at 10 µM,[15],> 95%
same,remaining activity at 10 µM,[15],4.1%
same,remaining activity at 10 µM,[16],72.6%
same,remaining activity at 10 µM,[17],94.1%
same,remaining activity at 10 µM,[18],93.1%
same,remaining activity at 10 µM,[19],66.9%
same,remaining activity at 10 µM,[20],62.2%
same,remaining activity at 10 µM,[21],94.6%
same,inhibition at 10 µM,[22],> 95%
same,remaining activity at 10 µM,[22],3.9%
same,remaining activity at 10 µM,[23],90%
same,remaining activity at 10 µM,[24],10.6%
same,remaining activity at 10 µM,[25],34%
same,remaining activity at 10 µM,[26],35.9%
same,remaining activity at 10 µM,[27],95.8%
same,remaining activity at 10 µM,[28],88.4%
same,remaining activity at 10 µM,[29],85%
same,remaining activity at 10 µM,[30],16.5%
same,remaining activity at 10 µM,[31],141%
same,remaining activity at 10 µM,[32],36.3%
same,remaining activity at 10 µM,[33],27.9%
same,remaining activity at 10 µM,[34],94.3%
same,remaining activity at 10 µM,[35],79.5%
same,remaining activity at 10 µM,[36],81.6%
same,remaining activity at 10 µM,[37],97.5%
same,remaining activity at 10 µM,[38],84.2%
same,remaining activity at 10 µM,[39],34.9%
same,remaining activity at 10 µM,[40],74.3%
same,remaining activity at 10 µM,[41],52.3%
same,remaining activity at 10 µM,[42],92.1%
same,remaining activity at 10 µM,[43],90.2%
same,remaining activity at 10 µM,[44],99.1%
